{"source": "patent US20240246941A1", "about": "“SUBSTITUTED 4-(3-AMINOPROP-1-YL)AMINOQUINOLINE ANALOGS AS MODULATORS OF MELANOMA-ASSOCIATED ANTIGEN 11 UBIQUITIN LIGASE” (ST. JUDE CHILDREN'S RESEARCH HOSPITAL, INC., priority 2020, published 2024)", "key": {"[1]": {"molecular_target": "MAGE-A11 binding to PCF11 in FLAG-MAGE-A11 HEK293FT cell lysates (Homo sapiens (Human), UniProt P43364)", "sequence (P43364 whole entry)": "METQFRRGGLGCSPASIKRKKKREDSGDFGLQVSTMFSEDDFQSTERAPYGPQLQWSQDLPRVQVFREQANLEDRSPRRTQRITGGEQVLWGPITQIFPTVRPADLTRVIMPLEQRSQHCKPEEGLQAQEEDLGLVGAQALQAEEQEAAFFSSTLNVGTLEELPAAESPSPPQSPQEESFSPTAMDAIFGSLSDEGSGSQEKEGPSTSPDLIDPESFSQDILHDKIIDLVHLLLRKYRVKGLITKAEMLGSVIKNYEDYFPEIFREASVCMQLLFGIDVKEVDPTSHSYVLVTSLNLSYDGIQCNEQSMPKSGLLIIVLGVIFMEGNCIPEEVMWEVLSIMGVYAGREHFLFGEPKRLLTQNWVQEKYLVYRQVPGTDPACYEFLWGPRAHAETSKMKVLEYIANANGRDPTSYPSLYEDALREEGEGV", "assay": "anti-FLAG pull-down (co-IP) of MAGE-A11:PCF11 in cell lysates", "conditions": "100 μM, 24 hours, immunoblot for endogenous PCF11, listed as SJ521054", "procedure": "Immunoprecipitation. HEK293FT cells were plated in 6 cm^2 plates and transfected 24 hours later with Effectene (QIAGEN) according to the manufacturer's protocol. After 48 hours, cells were washed and scraped in cold PBS, spun down and resuspended in lysis buffer (50 mM Tris pH 7.4, 150 mM NaCl, 1 mM DTT, 0.1% (v/v) Triton X-100, 10 mM N-Ethylmaleimide and 1× protease inhibitor cocktail (Sigma)). Cell lysates were incubated with appropriate antibodies overnight at 4° C. and then with protein A beads for 2 hours at 4° C. Beads were then washed with lysis buffer three times and eluted with 2×SDS sample buffer.\n(§1) Western Blotting and Antibodies. For western blotting, samples in SDS sample buffer were resolved on SDS-PAGE gels and then transferred to nitrocellulose membranes prior to blocking in TBST with 5% (w/v) milk powder or 3% (w/v) bovine serum albumin and probing with primary and secondary antibodies (GE Healthcare). Primary antibodies were: anti-Myc (Sigma, #C3956), anti-FLAG (Sigma, #F3165), anti-HUWE1 (Novus Biologicals, #NB 100-652), anti-PCF11 (Bethyl Laboratories, #A303-706A), anti-GAPDH (Cell Signaling Technology, #2118), anti-TRIM28 (Abcam, #ab22553), anti-AMPKa1 (Cell Signaling Technology, #2795) and anti-MMS19 (Proteintech, #16015-1-AP). Protein signal was visualized after addition of ECL detection reagent (GE Healthcare) according to manufacturer's instructions."}, "[2]": {"assay": "Solubility assay (μSOL Evolution, UV)", "assay_type": "physicochemical", "conditions": "18 h at RT in buffer", "procedure": "Solubility assays were carried out on a Biomek FX lab automation workstation (Beckman Coulter, Inc., Fullerton, CA) using SOL Evolution software (pION Inc., Woburn, MA). The detailed method is described as follows. 10 μl of 10 mM compound stock (in DMSO) was added to 190 μl 1-propanol to make a reference stock plate. 5 μl from this reference stock plate were mixed with 70 μl 1-propanol and 75 μl citrate phosphate-buffered saline (PBS; isotonic) to make the reference plate, and the UV spectrum (250-500 nm) of the reference plate was read. 6 μl of 10 mM test compound stock was added to 594 μl buffer in a 96-well storage plate and mixed. The storage plate was sealed and incubated at RT for 18 h. The suspension was then filtered through a 96-well filter plate (pION Inc., Woburn, MA). 75 μl of filtrate was mixed with 75 μl 1-propanol to make the sample plate, and the UV spectrum of the sample plate was read. Calculations were carried out with μSOL Evolution software based on the area under the curve (AUC) of the UV spectrum of the sample and reference plates. All compounds were tested in triplicate."}, "[3]": {"test_system": "MAGE-A11-knockout DAOY cells or those reconstituted with MAGE-A11", "assay": "Cell viability alamarBlue assay, DAOY cells", "assay_type": "cell-based", "conditions": "MAGE-A11 expressing DAOY cells versus MAGE-A11-negative cells, 24 hours, listed as SJ521054", "procedure": "(§2) Cell viability Assay. To assess cell viability after SJ521054 treatment, 1×10^4 cells/ml were treated with SJ521054 (0-40 μM) and incubated for 24 hours prior to changing the media and adding alamarBlue (Thermo Fisher Scientific) and incubating for 4 hours at 37° C. Plates were read by measuring the fluorescence with excitation wavelength at 540 nm and emission wavelength at 590 nm on an Enspire plate reader."}, "[4]": {"test_system": "PCF11 protein levels in HEK293FT cells", "assay": "PCF11 degradation by MAGE-A11, immunoblotting in HEK293FT cells", "assay_type": "cell-based", "conditions": "24 hours", "procedure": "Cell culture and stable cell lines. HEK293FT, HeLa and DAOY cells were grown in DMEM (Gibco) supplemented with 10% (v/v) FBS (Hyclone), 2 mM L-glutamine, 100 units/ml penicillin, 100 units/ml streptomycin, and […] amphotericin B (Invitrogen). HEK293FT and DAOY cells were transfected with either HA-FLAG-vector, FLAG-MAGE-A11 wild-type or SBC mutants using Effectene (QIAGEN) according to the manufacturer's protocol in 6 cm^2 plates. After 48 hours, cells were selected with 1 μg/ml puromycin (Sigma) over 2 weeks.\nas §1"}, "[5]": {"test_system": "HEK293FT cells stably expressing FLAG-vector or FLAG-MAGE-A11", "assay": "Cell viability alamarBlue assay, HEK293FT cells", "assay_type": "cell-based", "conditions": "MAGE-A11 expressing HEK293FT cells versus vector control, 24 hours, listed as SJ521054", "procedure": "as §2"}}, "note": "Entries after “also recorded” stand apart in the source; their conditions may differ.", "data": [{"compound": "FC(F)(F)c1ccc2c(NCCCNCc3ccc4[nH]ccc4c3)ccnc2c1", "note": "[SJ000521054-02, N^1-((1H-Indol-5-yl)methyl)-N^3-(7-(trifluoromethyl)quinolin-4-yl)propane-1,3-diamine]", "values": [{"measurement": "MAGE-A11 binding to PCF11 in cell lysate (co-IP)", "setting": "[1]", "result": "inhibited MAGE-A11 binding to PCF11 in cell lysates"}, {"measurement": "Solubility", "setting": "[2]", "result": 26.48, "unit": "µM"}, {"measurement": "cell viability", "setting": "[3]", "result": "reduces viability of MAGE-A11 expressing DAOY cancer cells; also recorded: decreased the viability"}, {"measurement": "PCF11 protein levels / PCF11 degradation by MAGE-A11", "setting": "[4]; MAGE-A11 expressing HEK293FT cells, listed as SJ521054", "result": "blocks PCF11 degradation by MAGE-A11; also recorded: stabilized PCF11 protein levels"}, {"measurement": "PCF11 protein levels", "setting": "[4]; vector control HEK293FT cells", "result": "no effect"}, {"measurement": "cell viability", "setting": "[5]", "result": "decreased the viability; also recorded: reduces viability of MAGE-A11 expressing HEK293FT cells"}]}]}
